Test results reported in patent US8304406B2, “Compounds for treating pulmonary hypertension” (Bayer Intellectual Property GmbH, priority 2006, dated 2012).

Key:
[1] = test system: monocrotaline (MCT) induced pulmonary arterial hypertension in rats; assay: Pulmonary artery pressure in monocrotaline treated rats; format: in vivo, rat (male Sprague Dawley)
Method: Pulmonary Artery Pressure in Monocrotaline Treated Rats
Male Sprague Dawley rats (250-300 g) are treated with monocrotaline 60 mg/kg subcutanously (=day 0). On day 14 after monocrotaline injection treatment the compound/combination to be tested is administered. On day 28 hemodynamic parameters, i.e. right ventricular pressure, systemic blood pressure, heart rate, arterial and venous oxygen saturation are measured and compared with untreated control animals.
The mentioned monocrotaline (MCT) treated rats are randomized to receive example 14 [4-(4-chlorophenylamino)-7-(2-methylaminocarbonyl-4-pyridylmethoxy)furo-[2,3-d]pyridazine] 10 mg/kg or vehicle by gavage once daily after the onset of moderate pulmonary arterial hypertension starting 14 days after the injection of MCT until the final hemodynamic measurement on day 28. In animals with MCT induced pulmonary arterial hypertension treatment with example 14 markedly decreases right ventricular systolic pressure, compared to vehicle treated animals (control: 25±0.56 mmHg; example 14: 42.04±3.21 mmHg vs. placebo: 71.02±5.38 mmHg) (mean±SEM). This effect of example 14 is paralleled by an inhibition of right ventricular hypertrophy (right ventricle/left ventricle+septum ratio control: 0.26±0.01; example 14: 0.32±0.02 vs. placebo: 0.54±0.04).

melting point	Structure (SMILES)	right ventricle/left ventricle+septum ratio (right ventricular hypertrophy) ([1]; 10 mg/kg by gavage once daily from day 14 to day 28, day 28, control 0.26±0.01, placebo 0.54±0.04)	right ventricular systolic pressure ([1]; 10 mg/kg by gavage once daily from day 14 to day 28, measured day 28, mean±SEM, control 25±0.56, placebo 71.02±5.38)
233 °C	NC(=O)c1cc(COc2nnc(Nc3ccc(Cl)cc3)c3ccsc23)ccn1		
203 to 205 °C (dec.)	Clc1ccc(Nc2nnc(OCc3ccncc3)c3sccc23)cc1		
	CNC(=O)c1cc(COc2nnc(Nc3ccc(Cl)cc3)c3ccoc23)ccn1 [Example 14, 4-(4-chlorophenylamino)-7-(2-methylaminocarbonyl-4-pyridylmethoxy)furo-[2,3-d]pyridazine]	0.32±0.02	42.04±3.21 mmHg
